Data set [1] concerns Plasmodium falciparum. Put plainly: NOVARTIS: Inhibition of Plasmodium falciparum W2 (drug-resistant) proliferation in erythrocyte-based infection assay. Particulars: read-out: EC50. It is filed as functional, organism-based.
The test system of data set [2] is Huh-7. Put plainly: (§1) NOVARTIS: Cytotoxicity against human hepatocellular carcinoma cell line (Huh7). The class given is toxicity, cell-based. As to conditions: huh-7, read-out: CC50.
For data set [3], the system named is Plasmodium falciparum. Nature of the data set: NOVARTIS: Inhibition of Plasmodium falciparum 3D7 (drug-susceptible) proliferation in erythrocyte-based infection assay. The class given is functional, organism-based.
Data set [4] in a line: as §1. The class given is toxicity, cell-based, Huh-7. Particulars: Huh7 cells (hepatocellular carcinoma cell line).

This passage reports EC50 and CC50 results from ChEMBL document CHEMBL1156829 (Proc Natl Acad Sci U S A, 2008).

Usually EC50 stands for the concentration that produces a half-maximal response. The CC50 is the concentration giving 50% cytotoxicity.

Structures are written as SMILES. “And” between values parts separate entries of the source, which are not always exact repeats. Equal values may be shown once.

For `Cc1cc(/C=C2\SC(=Nc3ccccc3)NC2=O)c(C)n1-c1ccccc1`, the EC50 in data set [1] is 12.8 nM and 86.2 nM. For the same compound, the CC50 in data set [2] was above 99700 nM.
Turning to `Cc1ccc(/C=C2/SC(=Nc3ccccc3)NC2=O)c(C)c1`, the EC50 in data set [1] (Plasmodium falciparum, W2) was 455 nM; in data set [1], 351 nM; in data set [3], 468 nM and 232 nM. Further, in data set [2], the CC50 is above 100000 nM.
Take `CCCCN1C(=Cc2cccc[n+]2C)Sc2cc(NC(C)=O)ccc21`: the EC50 in data set [1] worked out at 3670 nM; in data set [3], 2110 nM. Moreover, in data set [2], the CC50 is above 100000 nM.
For `CCCCCC[n+]1ccccc1C=Cc1ccc(N(C)C)cc1`, in that order: 211 nM, 96.1 nM and 2410 nM.
As for `C/C(C=C1Sc2ccc3ccoc3c2N1CCO)=C\c1sc2ccc3occc3c2[n+]1CCO`, the EC50 in data set [3] is 6890 nM and 1540 nM. The CC50 in data set [2] is above 100000 nM.
For the compound `CCN1/C(=C/c2ccc3cc(C)ccc3[n+]2C)Sc2ccc3ccsc3c21`, the EC50 in data set [1] (Plasmodium falciparum, W2) is above 1250 nM; in data set [1] it was 843 nM; in data set [3], 951 nM and 371 nM. Also, in data set [2], the CC50 is > 10000 nM and 55900 nM.
Regarding `CC[n+]1c(/C=C2\Sc3cc(NC(C)=O)ccc3N2C)ccc2ccccc21`, the EC50 in data set [3] was 373 nM and 72.2 nM. In addition, the CC50 in data set [2] is above 100000 nM.
`C=C(c1ccccc1)[n+]1ccc(/C=C/c2ccccc2O)cc1`: the EC50 in data set [1] (Plasmodium falciparum, W2) was 277 nM; in data set [1], 289 nM; in data set [3], 355 nM and 739 nM. Besides, the CC50 in data set [2] was > 10000 nM and 92700 nM.
In the case of `CCN1/C(=C/C=C/C2=[N+](C)c3ccc(C)cc3C2(C)C)C=Cc2ccccc21`, the EC50 is 860 nM and 184 nM in data set [1]; 861 nM and 158 nM in data set [3]. In data set [2], the 50% cytotoxic concentration (CC50) is > 10000 nM and 4990 nM.
`CC[n+]1c(/C=C2\Sc3ccc(OC)cc3N2C)ccc2cc(C)ccc21`: the EC50 in data set [1] is 331 nM and 52 nM. The CC50 in data set [2] was > 10000 nM and 21800 nM.
In the case of `CN(C)c1ccc(C=Cc2cccc[n+]2C)cc1`, the EC50 in data set [3] amounted to 314 nM; in data set [3] (Plasmodium falciparum, 3D7), 248 nM. The CC50 in data set [2] is 3030 nM and > 10000 nM.
Regarding `CCOc1ccc(/C=C2/SC(=Nc3ccccc3)NC2=O)cc1OC`, in data set [3], the EC50 was 662 nM and 1530 nM. For the same compound, the CC50 in data set [2] was above 100000 nM.
Take `CC(C)NCC(O)c1ccc2ccccc2c1` (centres undefined) [PRONETALOL]: the EC50 in data set [1] (Plasmodium falciparum, W2) came out at 366 nM; in data set [3] (Plasmodium falciparum, 3D7), 455 nM. Moreover, in data set [4], the CC50 was 13100 nM.
For `CCCNCC(O)COc1ccccc1C(=O)CCc1ccccc1` (centres undefined) [PROPAFENONE], in that order: 116 nM, 252 nM and 28900 nM.
The matching figures for `COc1ccc(C[C@H](N)C(=O)N[C@H]2[C@@H](O)[C@H](n3cnc4c(N(C)C)ncnc43)O[C@@H]2CO)cc1` [PUROMYCIN]: 328 nM, 611 nM and 6630 nM.
In the case of `CCc1nc(N)nc(N)c1-c1ccc(Cl)cc1` [PYRIMETHAMINE], the EC50 in data set [1] (Plasmodium falciparum, W2) turned out to be 14.6 nM; in data set [3] (Plasmodium falciparum, 3D7), 31.9 nM. The compound further showed a CC50 in data set [4] of 45600 nM.
For `CCN(CC)CCCC(C)Nc1c2ccc(Cl)cc2nc2ccc(OC)cc12` (centres undefined) [QUINACRINE], in that order: 14.2 nM, 8.13 nM and 19600 nM.
`C=C[C@H]1CN2CC[C@H]1C[C@@H]2[C@@H](O)c1ccnc2ccc(OC)cc12` [QUINIDINE]: the EC50 in data set [1] (Plasmodium falciparum, W2) came out at 35.2 nM; in data set [3] (Plasmodium falciparum, 3D7), 9.59 nM. The CC50 in data set [4] is 50800 nM.
For `C=C[C@H]1CN2CC[C@H]1C[C@H]2[C@H](O)c1ccnc2ccc(OC)cc12` [QUININE], in that order: 1320 nM, 993 nM and above 6250 nM.
The matching figures for `CN1CCc2cc3c(c4c2C1Cc1ccccc1-4)OCO3` (centres undefined) [ROEMERINE]: 112 nM, 93.1 nM and 22300 nM.
For the compound `O=C(O)[C@@H]1C[C@H](CP(=O)(O)O)CCN1` [SELFOTEL], the EC50 in data set [1] (Plasmodium falciparum, W2) was above 1210 nM; in data set [3] (Plasmodium falciparum, 3D7), 1320 nM. The CC50 in data set [4] is above 5060 nM.
The matching figures for `CCCCCCCCNC(C)C(O)c1ccc(SC(C)C)cc1` (centres undefined) [SULOCTIDIL]: 603 nM, 82.4 nM and 10500 nM.
Consider `c1ccc(-c2cccc(-c3ccccn3)n2)nc1` [TERPYRIDINE], for which the EC50 in data set [1] (Plasmodium falciparum, W2) came to 39.2 nM; in data set [3] (Plasmodium falciparum, 3D7), 154 nM. Also, in data set [4], it took 12600 nM to reach half-maximal cytotoxicity (CC50).
The matching figures for `CC(/C=C/C(=O)NO)=C\[C@@H](C)C(=O)c1ccc(N(C)C)cc1` [TRICHOSTATIN]: 171 nM, 200 nM and 1590 nM.
As for `O=C1c2ccccc2-n2c1nc1ccccc1c2=O` [TRYPTANTHRIN], the EC50 was found to be 276 nM in data set [1] (Plasmodium falciparum, W2) and 212 nM in data set [3] (Plasmodium falciparum, 3D7). The CC50 in data set [4] was above 10000 nM.
For `COc1cc2c3c(c4cc(OC)c(OC)cc4c2cc1OC)CN1CCC[C@@H]1C3` [TYLOPHORINE], in that order: 963 nM, above 509 nM and above 7910 nM.
Take `COc1cc2c(Nc3ccc(Br)cc3F)ncnc2cc1OCC1CCN(C)CC1` [VANDETANIB]: the EC50 in data set [1] (Plasmodium falciparum, W2) is 1600 nM; in data set [3] (Plasmodium falciparum, 3D7), 1920 nM. In data set [4], this compound returned a CC50 of 37200 nM.
